Patent publication US20220280527A1, “TRACE AMINE ASSOCIATED RECEPTOR 1 AGONISTS AND PARTIAL AGONISTS FOR PAIN TREATMENT” (Purdue Pharma L.P., priority 2016, published 2022)

How the values were obtained:
[1] = biological target: T1, hTAAR1 (Homo sapiens, UniProt Q96RJ0); experiment: hTAAR1 functional assay (cAMP); assay type: cell-based; details: for EC50: read-out: hTAAR1 EC50 (mean ± SEM (n)); for Emax: read-out: hTAAR1 Emax (mean ± SEM (n))
T1 construct: expressed in transfected cells; host or cells: recombinant cells
T1 sequence (Q96RJ0 1-339): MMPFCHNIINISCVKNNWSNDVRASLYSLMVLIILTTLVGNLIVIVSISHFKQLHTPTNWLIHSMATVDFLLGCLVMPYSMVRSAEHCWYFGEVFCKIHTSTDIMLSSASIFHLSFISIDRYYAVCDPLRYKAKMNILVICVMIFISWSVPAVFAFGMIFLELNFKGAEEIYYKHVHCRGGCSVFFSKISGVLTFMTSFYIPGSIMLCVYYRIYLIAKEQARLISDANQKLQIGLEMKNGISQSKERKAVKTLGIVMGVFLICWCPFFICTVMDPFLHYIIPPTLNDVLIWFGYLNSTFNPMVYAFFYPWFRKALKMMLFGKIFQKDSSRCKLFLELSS
Method: EC50 and Erna, values are reported for these compounds in Table 1.
A GPCR cAMP Modulation Assay can be used to determine whether a compound can be considered an agonist or antagonist.
cAMP Hunter cell lines were expanded from freezer stocks according to standard procedures. Cells were seeded into white walled, 384-well microplates in a total volume of 20 μL and incubated at 37° C. prior to testing. cAMP modulation was determined using a DiscoverX HitHunter cAMP XS+assay.
To determine whether a compound would be considered an agonist, cells were incubated with a test compound to induce a response. Media was aspirated from cells and replaced with 15 μL, 2:1 HBSS/10mM Hepes: cAMP XS+Ab reagent. Sample stocks were diluted immediately to generate a 4X sample in assay buffer. 5 μL of the 4X sample was added to cells and incubated at room temperature or 37° C. for 30 or 60 minutes. Final assay vehicle concentration was 1%.
After appropriate compound incubation, assay signal was generated by incubation with […] cAMP XS+ED/CL lysis cocktail for one hour followed, which was followed with room temperature incubation with […] cAMP XS+EA reagent for three hours. Microplates were read following signal generation with a PerkinElmer Envision^Tm instrument for chemiluminescent signal detection.
CBIS data analysis suite (ChemInnovation, CA) was used to analyze compound activity. RLU stands for relative light units.
For Gs agonist mode assays, percent activity was calculated using the following formula: […]

[2] = tested on: Sprague-Dawley rats; experiment: SNL-induced mechanical hyperalgesia model (paw pressure test, PWT); assay type: in vivo, rat; details: for minimum effective dose (MED): 1 hour prior to testing
Method: Surgery is performed under isoflurane/O, inhalation anesthesia. Following induction of anesthesia, a 3 centimeter incision is made and the left paraspinal muscles are separated from the spinous process at the L4-S2 levels. The L6 transverse process is carefully removed with a pair of small rongeurs to identify visually the L4-L6 spinal nerves. The left L5 (or L5 and L6) spinal nerve(s) is isolated and tightly ligated with silk thread. A complete hemostasis is confirmed and the wound is sutured using non-absorbable sutures, such as nylon sutures or stainless steel staples. Sham-rats undergo an identical surgical procedure except that the spinal nerve(s) is not manipulated. Following surgery animals are weighed, administered a subcutaneous (SC) injection of saline or ringers lactate, the wound area is dusted with antibiotic powder and they are kept on a warm pad until they recover from the anesthesia. Animals are then returned to their home cages until behavioral testing begins (i.e., 3-4 weeks post-surgery). The animals are assessed for their response to either a noxious or non-noxious stimuli, described below, prior to surgery (baseline), then 1, 3, and 5 hours after being administered a compound of the present disclosure 3 or 4 weeks post-surgery.
Hyperalgesia: The paw pressure assay can be used to assess mechanical hyperalgesia. Sensitivity to noxious mechanical stimuli is measured in animals using the paw pressure test to assess mechanical hyperalgesia. In rats, hind paw withdrawal thresholds (“PWT”), measured in grams, in response to a noxious mechanical stimulus are determined using an analgesymeter (Model 7200, commercially available from Ugo Basile of Italy), as described in C. Stein, “Unilateral Inflammation of the Hindpaw in Rats as a Model of Prolonged Noxious Stimulation: Alterations in Behavior and Nociceptive Thresholds,” Pharmacol. Biochem. and Behavior 31:451-455 (1988). The rat is gently restrained, its hindpaw is placed on a small round platform, and punctate pressure is applied to the dorsal surface of the hindpaw in a graded manner. The maximum weight that is applied to the hind paw is set at 250 grams and the end point is taken as complete withdrawal of the paw. PWT is determined once for each rat at each time point and either only the affected (ipsilateral; same side as the injury) rear paw is tested, or both the ipsilateral and contralateral (non-injured; opposite to the injury) rear paw are tested. Rats are tested prior to surgery or FCA administration to determine a baseline, or normal, PWT. Rats are tested again 3-4 weeks post-surgery or 24 hours post-FCA injection and at different times after (e.g., 1, 3, and 5 hours) compound or vehicle administration. A sham control is also implemented to determine the PWT of a rat having neither surgery nor compound administration.
Representative agonists and partial agonists of the present disclosure are tested in the spinal nerve ligation (“SNL”)-induced mechanical hyperalgesia model in male, Sprague-Dawley rats. Sensitivity to noxious mechanical stimuli is measured in animals using the paw pressure test to assess mechanical hyperalgesia. In rats, hind paw withdrawal thresholds (“PWT”), measured in grams, in response to a noxious mechanical stimulus are determined using an analgesymeter (Model 7200, commercially available from Ugo Basile of Italy), as described in C. Stein, “Unilateral Inflammation of the Hindpaw in Rats as a Model of Prolonged Noxious Stimulation: Alterations in Behavior and Nociceptive Thresholds,” Pharmacol. Biochem. & Behavior 31:451-455 (1988). Briefly, the rat's paw is placed on a small platform, and weight is applied in a graded manner up to a maximum of 250 grams. The endpoint is taken as the weight at which the paw is completely withdrawn. PWT is determined once for each rat at each time point. PWT is measured only in the injured paw. Rats are tested prior to surgery to determine a baseline, or normal, PWT. […]

[3] = tested on: 254 bp β-arresting KO rats; experiment: SNL-induced mechanical hyperalgesia in 254 bp β-arresting KO rats; assay type: in vivo, rat; details: IP dosing, achieved at 1 hour
[4] = tested on: 1276 bp GRK5 KO rats; experiment: SNL-induced mechanical hyperalgesia in 1276 bp GRK5 KO rats; assay type: in vivo, rat; details: IP dosing, achieved at 3 hours
[5] = tested on: Sprague-Dawley rats; experiment: Rotarod performance; assay type: in vivo, rat; details: IP at 30 mg/kg, 1 hour post dosing
Method: The Rotarod test is used to evaluate motor coordination, strength, and balance. The animals are placed on the rotating rod of the device. The time during which an animal can maintain itself on said bar at an accelerating speed of 5-40 rpm is recorded. 300 seconds is the assay cut-off. Data are analyzed by a two-way ANOVA using a Bonferroni Multiple Comparisons test. […] In the experiment, male, Sprague-Dawley rats, 211-241 g (n=10/group) were tested on an accelerating rotarod (AccuScan; manual 5-40 rpm).

[6] = tested on: Sprague-Dawley rats; experiment: Tail flick test (nociceptive pain); assay type: in vivo, rat; details: positive control, administered subcutaneously one hour prior to testing

| Structure (SMILES) | EC50 [1] [nM] | Emax [1] [%] | further results |
| --- | --- | --- | --- |
| NC1=N[C@@H](CCc2ccc(NC(=O)c3ccc(Cl)cc3)cc2)CO1 | 8.53 ± 0.25 | 42.7 ± 3 |  |
| Cc1c(F)cccc1[C@H]1COC(N)=N1 | 13.7 ± 5.01 | 68.7 ± 3 |  |
| O=C(Nc1ccc(C2CCNC2)cc1)Nc1ccc(Cl)cn1 (stereo not drawn) | 54.5 ± 18.6 | 80.9 ± 3 |  |
| NC1=N[C@@H](c2ccc(Cl)c(Cl)c2)CO1 |  | 35.5 ± 3 |  |
| Clc1ccc(Nc2ccc(C3CNCCO3)nc2)cc1 (stereo not drawn) | 123 ± 9.99 | 56.1 ± 7.5 |  |
| NC1CCc2cc(NC(=O)c3ccnc(C(F)(F)F)c3)ccc2C1 (stereo not drawn) | 163 |  | hTAAR1 Emax (mean ± SEM (n)) [1]: 85.8 ± 3.0% (2.8) |
| O=C(Nc1ccc(C2CCNC2)cc1)c1ccc(Cl)cn1 (stereo not drawn) | 475 ± 50.1 | 73.5 ± 3 |  |
| CC(C)n1nc(OCC(F)(F)F)cc1C(=O)Nc1ccc(C2OC3CN[C@H]2C3)cc1 (stereo partly drawn) | 519 |  | hTAAR1 Emax (mean ± SEM (n)) [1]: 66.6 ± 14.9% (3) |
| O=C(Nc1ccc(C2O[C@@H]3CN[C@H]2C3)cc1)c1ccc(Cl)cc1 (stereo partly drawn) | 7210 |  | hTAAR1 Emax (mean ± SEM (n)) [1]: 29.7 ± 14.2% (3) |
| CCOc1cccc(NC(=O)c2ccc(N3CCCC3)c(C(F)(F)F)c2)c1 | > 10000 | 6.1 ± 3 |  |
| CC(C)N(Cc1c[nH]cn1)c1ccc(Cl)cc1 [Compound 1, N-((1H-imidazol-4-yl)methyl)-4-chloro-N-isopropylaniline] |  |  | maximum reversal of SNL-induced mechanical hyperalgesia ([2]; IP dosing, achieved at 3 hours): 41%; minimum effective dose (MED) ([2]; PO dosing): < 3 mg/kg; maximum reversal of SNL-induced mechanical hyperalgesia ([2]; PO dosing, achieved at 3 hours): 69% |
| CCN(CC1COC(N)=N1)c1ccccc1 (stereo not drawn) [Compound 2, 4-((ethyl(phenyl)amino)methyl)-4,5-dihydrooxazol-2-amine] |  |  | maximum reversal of SNL-induced mechanical hyperalgesia [3]: 43%; minimum effective dose (MED) ([2]; IP dosing): < 1 mg/kg; maximum reversal of SNL-induced mechanical hyperalgesia ([2]; IP dosing, achieved at 3 hours): 76%; minimum effective dose (MED) ([2]; PO dosing): 10 mg/kg; maximum reversal of SNL-induced mechanical hyperalgesia ([2]; PO dosing, achieved at 3 hours): 22%; maximum reversal of SNL-induced mechanical hyperalgesia [4]: 61%; rotarod performance (motor performance) [5]: produced deficits in motor performance |
| NC1=NC(c2ccc(Cl)c(Cl)c2)CO1 (stereo not drawn) [Compound 3, 4-(3,4-dichlorophenyl)-4,5-dihydrooxazol-2-amine] |  |  | minimum effective dose (MED) ([2]; IP dosing): 3 mg/kg; maximum reversal of SNL-induced mechanical hyperalgesia ([2]; IP dosing, achieved at 3 hours): 56%; minimum effective dose (MED) ([2]; PO dosing): 10 mg/kg; maximum reversal of SNL-induced mechanical hyperalgesia ([2]; PO dosing, achieved at 1 hour): 23% |
| CCN(CC1COC(N)=N1)c1ccccc1 (stereo not drawn) [drawing 40] | 92 ± 10.9 | 81.7 ± 3 |  |
| CN1CC[C@]23c4c5ccc(O)c4O[C@H]2[C@@H](O)C=C[C@H]3[C@H]1C5 [morphine] |  |  | analgesic efficacy in the tail flick assay [6]: robust analgesic efficacy |
